What all share (assay): TyrA arogenate dehydrogenase kinetics and tyrosine inhibition (340 nm)
What all share (type): biochemical

Experiment [1] deals with T1, Brachypodium distachyon BdTyrA1, SEQ ID NO: 33, recombinant (Brachypodium distachyon, UniProt A0A2K2DMR9).
T1 construct: from genomic DNA
T1 sequence (A0A2K2DMR9 539-925): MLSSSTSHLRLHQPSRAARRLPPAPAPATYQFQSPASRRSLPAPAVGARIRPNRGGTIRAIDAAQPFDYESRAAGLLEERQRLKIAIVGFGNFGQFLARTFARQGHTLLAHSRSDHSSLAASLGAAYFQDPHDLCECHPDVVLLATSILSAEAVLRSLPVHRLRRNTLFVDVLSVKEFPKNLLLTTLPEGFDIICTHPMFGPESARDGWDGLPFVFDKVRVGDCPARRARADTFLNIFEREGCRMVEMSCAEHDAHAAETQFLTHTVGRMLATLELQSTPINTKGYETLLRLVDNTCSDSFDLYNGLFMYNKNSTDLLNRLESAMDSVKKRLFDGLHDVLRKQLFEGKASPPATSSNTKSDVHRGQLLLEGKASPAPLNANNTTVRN
An excerpt: (§1) Next, to study the biochemical properties of grass TyrA enzymes, we generated and characterized recombinant purified TyrA proteins from Brachypodium (BdTyrA) and Sorghum (SbTyrA), two distantly related grass species^43, 44. Whereas TyrA enzymes from dicot plants are generally NADP^+-dependent arogenate dehydrogenases^20, 39, 45, except for NADP^+-prephenate dehydrogenases in the legume family^40, 46, previous reports on the substrate preference of grass TyrA enzymes are inconclusive^17, 19. […] NAD^+-prephenate dehydrogenase activity was absent in all cases, ruling out a significant contamination of the enzyme preparations with the TyrA enzyme from E. coli^47.48.

Experiment [2] addresses T2, Brachypodium distachyon BdTyrA2, SEQ ID NO: 35, recombinant (Brachypodium distachyon, UniProt I1GWX1).
T2 sequence (I1GWX1 55-365): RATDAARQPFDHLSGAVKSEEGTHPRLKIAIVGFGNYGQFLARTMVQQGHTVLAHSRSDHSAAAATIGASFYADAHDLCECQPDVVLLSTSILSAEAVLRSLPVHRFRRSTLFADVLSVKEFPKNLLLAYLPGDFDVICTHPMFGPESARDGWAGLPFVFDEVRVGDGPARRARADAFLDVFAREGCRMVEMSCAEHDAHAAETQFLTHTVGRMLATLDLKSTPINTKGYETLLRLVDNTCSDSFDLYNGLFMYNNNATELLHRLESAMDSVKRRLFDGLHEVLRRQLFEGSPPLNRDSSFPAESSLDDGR
From the text: as §1

Experiment [3] deals with T3, Sorghum bicolor SbTyrA1, SEQ ID NO: 39, recombinant (Sorghum bicolor, UniProt A0A194YLK4).
T3 construct: from genomic DNA
T3 sequence (A0A194YLK4 475-836): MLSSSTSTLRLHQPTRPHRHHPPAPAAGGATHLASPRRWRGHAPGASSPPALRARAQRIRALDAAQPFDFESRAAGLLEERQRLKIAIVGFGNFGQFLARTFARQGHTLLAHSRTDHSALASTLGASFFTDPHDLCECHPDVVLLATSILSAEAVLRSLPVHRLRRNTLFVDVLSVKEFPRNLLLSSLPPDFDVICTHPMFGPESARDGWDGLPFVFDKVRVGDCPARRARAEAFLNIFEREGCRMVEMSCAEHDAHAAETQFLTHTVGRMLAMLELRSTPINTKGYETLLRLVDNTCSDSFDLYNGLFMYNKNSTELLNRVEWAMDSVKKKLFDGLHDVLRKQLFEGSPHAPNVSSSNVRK
From the text: as §1

Setting [4] is: IC50 (tyrosine), 0.5 mM arogenate, 1 mM NADP^+.

“And” between values parts separate entries of the source, which are not always exact repeats. Equal entries are not always repeated.

One may read the Ki as the equilibrium dissociation constant of an inhibitor or competing ligand from its target. Broadly, the IC50 is the point on the concentration scale where inhibition reaches its midpoint.

On to `N[C@@H](Cc1ccc(O)cc1)C(=O)O` [tyrosine], for which the inhibitory constant (Ki) in experiment [1] was 46 ± 3 µM; in experiment [2] (calculated from Km and IC50, competitive inhibition model) it was 8 ± 2 µM; in experiment [3], 53 ± 10 µM. The “activity at 200 μM of tyrosine” value in experiment [1] (200 μM tyrosine) and in experiment [2] (200 μM tyrosine) was “fully inactive” each time. Moreover, the “mode of feedback inhibition by tyrosine” value in experiment [1] (FIG. 12) is listed as “competitive”. In addition, the IC50 in experiment [1] (setting [4]) is 66 ± 2 µM; in experiment [2] (setting [4]), ~20 µM and 20 µM; in experiment [3], 71 µM.

These data come from patent publication US20250115926A1, “DEREGULATED DHS AND TYRA ENZYMES OF GRASSES ENABLE EFFICIENT PRODUCTION OF BOTH TYROSINE AND PHENYLALANINE” (Wisconsin Alumni Research Foundation, priority 2023, published 2025).
